In this assay the target is T1, CCK-A receptors in rat pancreatic membranes (Rattus norvegicus, UniProt P30551).
T1 construct: CCK-A receptors in rat pancreatic membranes; from tissue; host or cells: rat pancreas (membranes)
T1 sequence (P30551 1-444): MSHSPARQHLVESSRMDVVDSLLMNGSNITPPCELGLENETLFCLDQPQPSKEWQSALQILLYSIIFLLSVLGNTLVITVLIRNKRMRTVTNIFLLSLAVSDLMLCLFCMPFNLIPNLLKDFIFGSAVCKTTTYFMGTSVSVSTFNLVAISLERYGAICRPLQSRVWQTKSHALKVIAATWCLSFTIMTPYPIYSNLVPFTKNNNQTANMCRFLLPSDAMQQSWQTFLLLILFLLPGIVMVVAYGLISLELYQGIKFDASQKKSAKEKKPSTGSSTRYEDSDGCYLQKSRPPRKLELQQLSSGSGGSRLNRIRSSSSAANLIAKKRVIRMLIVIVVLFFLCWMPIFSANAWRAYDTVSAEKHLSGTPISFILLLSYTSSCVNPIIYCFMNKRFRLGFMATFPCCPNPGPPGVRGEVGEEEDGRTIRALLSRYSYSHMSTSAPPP
Nature of the assay: Test B: CCK-A binding. The note with it: against Bolton Hunter 125I-CCK-8 and 3H-L364718, read-out: binding constant (Ki) at CCK-A receptors. The protocol: Evaluation of a test compound for its ability to bind to CCK-A receptors in rat pancreatic membranes is measured against the binding of Bolton Hunter^125 I-CCK-8 and ^3 H-L364718 to rat pancreas according to the procedures of Chang, Lotti, Chan and Kunkel (Molecular Pharmacology, 30:212-216, 1986).

Our source for the Ki values is patent US5502164A, “Peptide compounds having therapeutic activity” (priority 1992, dated 1996).

SMILES strings stand for the structures. Where a SMILES comes first, the peptide text is derived from it. [ ]: non-standard residue; d: D form. The star is where a group is joined. dNMeD = CN[C@H](CC(=O)O)C(=O)O; Nle = CCCC[C@H](N)C(=O)O; X1 = O=C(Cc1ccc(O)cc1)*

For orientation: Ki means the equilibrium dissociation constant of an inhibitor or competing ligand from its target. For `CCCC[C@H](NC(=O)Cc1ccc(O)cc1)C(=O)NCC(=O)N[C@@H](Cc1c[nH]c2ccccc12)C(=O)N[C@@H](CCCC)C(=O)N(C)[C@H](CC(=O)O)C(=O)N[C@@H](Cc1ccccc1)C(N)=O` [Example 49, Hpa-Ahx-Gly-Trp-Ahx-MeDAsp-Phe-NH2] (X1-[Nle]GW[Nle][dNMeD]F-NH2), the Ki was 0.03 nM.
